Data set [1] concerns the target Human immunodeficiency virus type 1 reverse transcriptase (Human immunodeficiency virus 1, UniProt Q72547). In words: Inhibition of HIV1 reverse transcriptase assessed as residual enzyme activity at 50 uM after 1 hr by ELISA. In general terms: An ELISA detects its analyte on a solid surface through an enzyme-linked reagent.
In data set [2] the test system is Human immunodeficiency virus 1. Briefly: microbe, parasite or virus in culture. The class given is functional, organism-based. The conditions noted are these: Human immunodeficiency virus 1, 3B, MAGI-CCR5, 48 h.
Data set [3] in a line: Cytotoxicity against human MAGI-CCR5 cells after 48 hrs by MTS cell viability assay. (In general: Formazan colour is commonly taken as a measure of viable cells.)
Data set [4] in a line: Selectivity index, ratio of CC50 for MAGI-CCR5 cells to IC50 for HIV13B infected in human MAGI-CCR5 cells. The class given is functional.
Data set [5] is described as follows: Permeability of the compound at 100 uM after 5 hrs by PAMPA. (In PAMPA a lipid-coated filter parts donor from acceptor wells.)

Usually IC50 stands for the concentration that gives 50% inhibition. Usually CC50 stands for the concentration giving 50% cytotoxicity. A lower CC50 goes with greater toxicity to the cells. As for `Clc1ccccc1-c1nc2ccccn2c1NC1CCCCC1`, the concentration for half-maximal inhibition (IC50) in data set [1] was 4.4 µM; in data set [2] it was 0.41 µM. Besides, in data set [3], the CC50 at 48 h stood at 60.4 µM. Besides, in data set [4], the “Ratio CC50/IC50” value amounted to 147. For the same molecule, the permeability entry in data set [5] is given as “permeable”.
As to `Cc1ccn2c(NC3CCCCC3)c(-c3ccccc3Cl)nc2c1`, the permeability result in data set [5] was “permeable”.
On to `Cc1ccc2nc(-c3ccccc3Cl)c(NC3CCCCC3)n2c1`, for which the results for the IC50 in data set [1] and in data set [2] were 5.39 µM and 0.64 µM, respectively. The molecule further showed a 50% cytotoxic concentration (CC50) at 48 h in data set [3] of 57.4 µM. For the same molecule, the “Ratio CC50/IC50” value in data set [4] stood at 90. For the same molecule, in data set [5], the permeability entry was “permeable”.
Take `Cc1cccc2nc(-c3ccccc3Cl)c(NC3CCCCC3)n12`: the half-maximal inhibitory concentration (IC50) worked out at 1.55 µM in data set [1] and 0.19 µM in data set [2]. Further, it took 20.5 µM to reach half-maximal cytotoxicity in data set [3] (CC50 at 48 h). The “Ratio CC50/IC50” value in data set [4] came out at 108.
In the case of `N#Cc1ccc2nc(-c3ccccc3Cl)c(NC3CCCCC3)n2c1`, the IC50 in data set [1] was 6.6 µM; in data set [2] it was under 0.63 µM. The CC50 at 48 h in data set [3] was found to be 140 µM. In data set [4], the “Ratio CC50/IC50” value is listed as over 222. Also, the permeability entry in data set [5] was “permeable”.
Regarding `N#Cc1cccc2nc(-c3ccccc3Cl)c(NC3CCCCC3)n12`, the concentration for half-maximal inhibition (IC50) in data set [1] is 3.47 µM; in data set [2] it was 0.18 µM. Half-maximal cytotoxicity in data set [3] (CC50 at 48 h) was put at 156 µM. In addition, the “Ratio CC50/IC50” value in data set [4] was 868. Besides, in data set [5], the permeability result is “permeable”.
Take `Fc1ccc2nc(-c3ccccc3Cl)c(NC3CCCCC3)n2c1`: the IC50 in data set [1] is 11.3 µM; in data set [2] it was 1.88 µM. Moreover, half-maximal cytotoxicity in data set [3] (CC50 at 48 h) was put at 160 µM. In addition, in data set [4], the “Ratio CC50/IC50” value came out at 85.
For `Clc1ccc2nc(-c3ccccc3Cl)c(NC3CCCCC3)n2c1`, the results for the IC50 in data set [1] and in data set [2] were 14.5 µM and 0.84 µM, respectively. Besides, the CC50 at 48 h in data set [3] is over 200 µM. Further, the “Ratio CC50/IC50” value in data set [4] was over 238. Also, the permeability entry in data set [5] is “permeable”.
On to `Clc1ccccc1-c1nc2cccc(Cl)n2c1NC1CCCCC1`, for which the half-inhibitory concentration (IC50) was 3.74 µM in data set [1] and 0.24 µM in data set [2]. Also, in data set [3], the 50% cytotoxic concentration (CC50) at 48 h is 152 µM. For the same molecule, in data set [4], the “Ratio CC50/IC50” value came out at 633. The permeability result in data set [5] was “permeable”.
Regarding `Clc1ccccc1-c1nc2ccc(Br)cn2c1NC1CCCCC1`, the IC50 in data set [1] came out at 12.2 µM; in data set [2] it was 2.19 µM. The same molecule showed a half-maximal cytotoxic concentration (CC50) at 48 h in data set [3] of over 200 µM. Also, in data set [4], the “Ratio CC50/IC50” value is listed as over 91.
The matching figures for `Clc1ccccc1-c1nc2cccc(Br)n2c1NC1CCCCC1`: 4.62 µM, 3.15 µM, over 200 µM and 64.
As for `Cc1c(Br)ccc2nc(-c3ccccc3Cl)c(NC3CCCCC3)n12`, the figures for the 50% inhibitory concentration (IC50) in data set [1] and in data set [2] were 18.9 µM and 73 µM, respectively. This molecule registered a 50% cytotoxic concentration (CC50) at 48 h in data set [3] of over 200 µM. The “Ratio CC50/IC50” value in data set [4] was over 3.
Regarding `Clc1ccccc1-c1nc2ccc3ccccc3n2c1NC1CCCCC1`, the values for the IC50 in data set [1] and in data set [2] were 7.52 µM and 0.6 µM, respectively. The same molecule registered a CC50 at 48 h in data set [3] of 146 µM. In addition, the “Ratio CC50/IC50” value in data set [4] was found to be 243. Moreover, the permeability result in data set [5] was “permeable”.
As for `COCCc1ccc(OCC(O)CNC(C)C)cc1` (stereo not given) [METOPROLOL], in data set [5], the permeability entry is listed as “permeable”.
The molecule `Cc1ccnc2c1NC(=O)c1cccnc1N2C1CC1` [NEVIRAPINE] registered an IC50 in data set [2] of 0.09 µM. The molecule further returned a CC50 at 48 h in data set [3] of over 10 µM.
For the molecule `CC(C)NCC(O)COc1cccc2[nH]ccc12` (stereo not given) [PINDOLOL], the permeability entry in data set [5] was “permeable”.
